From ChEMBL document CHEMBL1141986, “Molecular docking of the highly hypolipidemic agent alpha-asarone with the catalytic portion of HMG-CoA reductase” (Bioorg Med Chem Lett, 2005) come the findings set out here.

The target in experiment [1] is T1, 3-hydroxy-3-methylglutaryl-coenzyme A reductase (Homo sapiens, UniProt P04035).
T1 sequence (P04035 whole entry): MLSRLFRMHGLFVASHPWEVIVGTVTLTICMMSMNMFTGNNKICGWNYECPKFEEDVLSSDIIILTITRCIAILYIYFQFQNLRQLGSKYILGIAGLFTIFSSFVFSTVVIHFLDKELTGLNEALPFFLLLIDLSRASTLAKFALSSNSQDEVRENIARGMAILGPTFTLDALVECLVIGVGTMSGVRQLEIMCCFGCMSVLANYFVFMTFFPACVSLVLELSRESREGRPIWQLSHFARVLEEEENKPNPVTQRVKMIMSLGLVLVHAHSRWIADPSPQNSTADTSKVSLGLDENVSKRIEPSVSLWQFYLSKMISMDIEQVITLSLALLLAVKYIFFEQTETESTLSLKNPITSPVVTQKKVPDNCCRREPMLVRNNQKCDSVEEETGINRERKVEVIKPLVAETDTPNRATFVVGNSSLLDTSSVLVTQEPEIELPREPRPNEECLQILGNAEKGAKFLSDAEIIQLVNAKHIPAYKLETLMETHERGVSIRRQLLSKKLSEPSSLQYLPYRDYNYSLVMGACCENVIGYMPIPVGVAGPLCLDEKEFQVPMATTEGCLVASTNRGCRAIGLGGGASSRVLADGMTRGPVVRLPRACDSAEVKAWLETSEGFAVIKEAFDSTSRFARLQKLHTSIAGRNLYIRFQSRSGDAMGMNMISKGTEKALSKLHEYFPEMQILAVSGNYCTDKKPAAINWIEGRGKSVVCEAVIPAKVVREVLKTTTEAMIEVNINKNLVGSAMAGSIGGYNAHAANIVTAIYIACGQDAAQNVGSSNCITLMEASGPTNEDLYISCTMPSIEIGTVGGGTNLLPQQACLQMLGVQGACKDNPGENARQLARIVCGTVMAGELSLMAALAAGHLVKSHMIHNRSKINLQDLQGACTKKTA
In words: Inhibitory constant against HMG-CoA reductase.

Experiment [2] addresses T1, 3-hydroxy-3-methylglutaryl-coenzyme A reductase. In words: Inhibitory concentration against HMG-CoA reductase.
For experiment [3] the target is unchanged. Briefly: Inhibitory constant against HMG-CoA reductase with alpha asarone.

SMILES strings stand for the structures.

In experiment [1], `CC(O)(CC(=O)O)CC(=O)O` [MEGLUTOL] showed a Ki of 23.5 nM. For the same molecule, in experiment [2], the half-inhibitory concentration (IC50) was determined as 4000 nM.
For the molecule `CC(C)c1nc(N(C)S(C)(=O)=O)nc(-c2ccc(F)cc2)c1/C=C/[C@@H](O)C[C@@H](O)CC(=O)O` [ROSUVASTATIN], the values for the Ki in experiment [1] and in experiment [3] were 0.9 nM and 71000 nM, respectively. In experiment [2], this molecule yielded an IC50 of 5.4 nM.

As usually defined, the Ki is a dissociation constant, usually derived from enzyme kinetics or from competition with a known ligand. The low end stands for a stronger hold on the target, the high end for a looser hold on the target. In general, IC50 refers to the concentration that inhibits the measured activity by half. Lower therefore signals higher potency.
